The values that follow come from patent US20160214958A1, “COMPOUNDS AND USE FOR TREATING CANCER” (GLIONOVA AB, priority 2013, published 2016).

Series [1] concerns S10-resistant GSCs (U3013MG). The series can be described thus: Viability of S10-resistant GSCs surviving the shRNA screen. In kind it is cell-based. As to conditions: Homo sapiens, cells surviving 14 μM S10 after shRNA library transduction, read-out: EC50 on GSC viability, S10-resistant GSCs. The source says:
A genome wide screen with shRNA libraries was used to identify pathways for S10 induced macropinocytosis. The approach was based on the idea that depleting a key factor in the pathway should render GSCs refractive to S10 induced death. Three different DECIPHER pooled lentiviral shRNA libraries consisting of 82500 shRNA covering 15377 genes grouped into Human Module 1 (genes associated with various signaling pathways), Human Module 2 (disease-associated genes) and Human Module 3 (genes associated with cell surface, extracellular and DNA binding), were used to transduce U3013MG GSCs. Four days later, 14 μM S10 was added for one day after which cells were cultured in standard medium for five month. Surviving cells were thereafter dissociated and further expanded. […] Phospho-MKK4 increased within 5 min of S10 exposure and remained at similar levels for at least 26 hrs of stimulation. Abrogation of MAP2K4 activity by five independent shRNAs led to marked increase of the EC50 viability value of S10-treated GSC. […] MKK4 was thereafter confirmed as a required protein for S10 induced macropinocytosis. […] Thus, the distinctive feature of susceptibility to macropinocytosis and death in GSCs require MKK4 activity.
GSCs grown to 70% confluency were transduced by DECIPHER pooled lentiviral shRNA libraries consisting of Human Module 1, 2 and 3 using earlier described protocols (Pasini et al., 2008). […]

Series [2] deals with U3013MG GSCs injected into brain ventricle. The series can be described thus: Zebrafish xenograft in vivo efficacy assay. As for the experimental part:
A xenotransplantation model for GBM in zebrafish was developed to test the capacity of the 17 hits to prevent tumor formation in vivo. Three thousand U3013MG GSCs labeled with cell tracker red were injected intracranially into the ventricle of 48-52 hpf larvae. Each of the 17 hits were administered to the egg water at the lowest effective in vitro cytotoxic concentration identified and tumor development assessed 10 days later. This assay allowed rapid evaluation of the compounds in an in vivo setup, features such as the acute/chronic toxicity effect of the compounds on zebrafish and the transplanted cells, transplanted cell proliferation and migration of cells into brain parenchyma, compounds penetrance into the zebrafish tissue were all parallely evaluated. […] Cardiovascular toxicity was assessed using a recently established model based on frequency spectral analysis of heart beating in ex-vivo adult zebrafish hearts (Kitambi et al., (2012) BMC Physiol. 12, 3).
The zebrafish xenografts glioblastoma model was developed for quantitative analyses on the efficacy of S10 to inhibit tumor development and for quantification of infiltration of cells in the host brain. […] The size of the tumor was determined by quantification of the area, fluorescence level and infiltration by measuring the average distance of infiltrating cells from the original tumor mass. […]

A short description of series [3]: In vivo pharmacokinetics studies of S10 (iv, ip, per oral). Set-up: species or system male BALB/c Mice. The conditions noted are these: male, BALB/c, mouse, ip and per oral administration. As for the experimental part: The bioavailability of S10 by oral and intraperitoneal injection in vivo was investigated. […] In a second delivery regimen, treatment was performed per orally (20 mg/kg) twice daily for five days. Treatment started at a terminal stage of GBM, i.e. six weeks after engraftment of U3013M GSCs and median survival from the time of treatment initiation and the Hazard ratio were scored.
In vivo pharmacokinetic studies of S10 were performed at SAI Life Sciences Ltd., Hyderabad, India to determine the plasma pharmacokinetics and brain distribution of S10 following a single intravenous, intraperitoneal and oral administration in male BALB/c Mice. Blood samples (approximately 60 μL) were collected from retro-orbital plexus of each mouse. The plasma and brain samples were obtained at 0.08, 0.25, 0.5, 1, 2, 4, 8, 24, 48, 72 and 144 hr (i.v.); 0.08, 0.25, 0.5, 1, 2, 4, 8 and 24 hour (i.p.) and 0.25, 0.5, 1, 2, 4, 6, 8, 24, 48, 72 and 144 hr (p.o.) post dosing. Plasma was harvested by centrifugation of blood and stored at −70° C. until analysis. Immediately after collection of blood, brain samples were collected from each mouse. Tissue samples (brain) were homogenized using ice-cold phosphate buffer saline (pH 7.4) and homogenates were stored below −70° C. until analysis. […] Plasma and brain samples were quantified using LC-MS/MS method LLOQ=1.03 ng/mL for plasma and LLOQ=10.25 ng/mL for brain. […]

SMILES strings stand for the structures.

The EC50 is the midpoint of the concentration-response curve. The bioavailability is dose-corrected exposure relative to a reference, in per cent. `OC(c1cc(-c2ccc(Cl)cc2)nc2ccccc12)C1CCCCN1` (racemic) [Compound S10, (2-(4-chlorophenyl)quinolin-4-yl)(piperidin-2-yl)methanol]: the EC50 in series [1] turned out to be 14.3 ± 1.16 µM. Also, the tumor growth entry in series [2] (15 μM applied to the aquarium water for 10 days) is given as “marked attenuation of tumor growth”. In addition, in series [2] (lowest effective in vitro cytotoxic concentration in egg water, assessed 10 days later), the tumor size result is reported as “markedly reduced tumor size”. For the same compound, the bioavailability in series [3] (plasma, following iv, read-out: bioavailability F) was found to be 69%. In addition, the half-life in series [3] (plasma and brain exposure following iv, read-out: half-life t1/2 (converted)) was 20 h.
